Measured values from BigSolDB 2.1.

O=C(O)c1ccccc1Nc1cccc(C(F)(F)F)c1
solubility (mole fraction)
Details | in DMSO | in ethanol | in ethylene glycol | in isopropanol | in methanol | in n-butanol | in propylene glycol | in sec-butanol | in transcutol | in water
298.2 K | 0.226 | 0.0681 | 0.00767 | 0.0962 | 0.0439 | 0.119 | 0.0126 | 0.121 | 0.193 | 5.83e-07
303.2 K | 0.241 | 0.0747 | 0.00856 | 0.105 | 0.048 | 0.13 | 0.0139 | 0.133 | 0.211 | 8.01e-07
308.2 K | 0.256 | 0.0857 | 0.00975 | 0.116 | 0.0531 | 0.142 | 0.0153 | 0.144 | 0.229 | 1.02e-06
313.2 K | 0.27 | 0.098 | 0.0107 | 0.128 | 0.0577 | 0.157 | 0.0167 | 0.16 | 0.251 | 1.28e-06
318.2 K | 0.286 | 0.112 | 0.012 | 0.144 | 0.0629 | 0.177 | 0.0181 | 0.179 | 0.278 | 1.6e-06

Details | solubility (mole fraction)
in PEG-400, 298.2 K | 0.0337
in PEG-400, 303.2 K | 0.04
in PEG-400, 308.2 K | 0.0469
in PEG-400, 313.2 K | 0.054
in PEG-400, 318.2 K | 0.0616
